Measured values as given in PubChem BioAssay AID192 (DTP/NCI, 2004).
Where “and” joins values, the source holds several entries; their conditions need not be identical. Equal values may be shown once. Inconclusive results and toxic doses are left out. Peptide text beside a SMILES is read from it.

Test system: BDF1 mice, B16 melanoma ip, median survival T/C
Assay: NCI In Vivo Anticancer Drug Screen. Data for tumor model B16 Melanoma (intraperitoneal) in B6D2F1 (BDF1) mice
Conditions: endpoint: median survival time, higher = longer survival
How it was run: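 In this screen, activity was judged from survival or tumor size in treated versus vehicle-treated tumor-bearing mice, reported as T/C.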

[1] = dose: 1.0 mg/kg/injection, schedule: Q01DX009 (ip), vehicle: saline
[2] = dose: 2.0 mg/kg/injection, schedule: Q01DX009 (ip), vehicle: saline
[3] = dose: 6.25 mg/kg/injection, schedule: Q01DX009 (ip), vehicle: Klucel (hydroxypropylcellulose) (HPC)
[4] = dose: 12.5 mg/kg/injection, schedule: Q01DX009 (ip), vehicle: Klucel (hydroxypropylcellulose) (HPC)

## OCCN1CCN(CC/C=C2/c3ccccc3Sc3ccc(C(F)(F)F)cc32)CC1
dose: 0.25 mg/kg/injection, schedule: Q01DX009 (ip), vehicle: saline
  T/C: 97 % of control
dose: 0.5 mg/kg/injection, schedule: Q01DX009 (ip), vehicle: saline
  T/C: 106 % of control
[1]
  T/C: 111 % of control
[2]
  T/C: 105 % of control

## O=C1C(NCC(O)CO)=C(N2CC2)C(=O)C(NCC(O)CO)=C1N1CC1 (centres undefined)
[1]
  T/C: 95 % of control
[2]
  T/C: 121 % of control
dose: 4.0 mg/kg/injection, schedule: Q01DX009 (ip), vehicle: saline
  T/C: 123 % of control

## NC(CCC(=O)O)C(=O)NC(CCC(=O)O)C(=O)O (stereo not drawn) (H-Glu-Glu-OH; configuration not given here)
dose: 50.0 mg/kg/injection, schedule: Q01DX009 (ip), vehicle: saline
  T/C: 97 % of control
dose: 100.0 mg/kg/injection, schedule: Q01DX009 (ip), vehicle: saline
  T/C: 96 % of control
dose: 200.0 mg/kg/injection, schedule: Q01DX009 (ip), vehicle: saline
  T/C: 93 % of control
dose: 400.0 mg/kg/injection, schedule: Q01DX009 (ip), vehicle: saline
  T/C: 91 % of control

## Cc1ccc(C2CC3c4ccccc4C2C2CCCCN32)cc1 (centres undefined)
dose: 0.78 mg/kg/injection, schedule: Q01DX009 (ip), vehicle: water
  T/C: 112 % of control
dose: 1.56 mg/kg/injection, schedule: Q01DX009 (ip), vehicle: water
  T/C: 104 % of control
dose: 3.13 mg/kg/injection, schedule: Q01DX009 (ip), vehicle: water
  T/C: 99 % of control and 115 % of control
dose: 6.25 mg/kg/injection, schedule: Q01DX009 (ip), vehicle: water
  T/C: 107 % of control and 110 % of control
dose: 12.5 mg/kg/injection, schedule: Q01DX009 (ip), vehicle: water
  T/C: 102 % of control
dose: 25.0 mg/kg/injection, schedule: Q01DX009 (ip), vehicle: water
  T/C: 98 % of control

## CCc1ncnc2cc(OCC3CO3)c(OC)cc12 (centres undefined)
dose: 6.25 mg/kg/injection, schedule: Q01DX009 (ip), vehicle: saline with Tween-80
  T/C: 109 % of control
dose: 20.0 mg/kg/injection, schedule: Q04DX003 (ip), vehicle: other
  T/C: 114 % of control
dose: 25.0 mg/kg/injection, schedule: Q01DX009 (ip), vehicle: saline
  T/C: 154 % of control

## Cc1cc(Cl)ccc1NC(=O)CCl
dose: 100.0 mg/kg/injection, schedule: Q01DX009 (ip), vehicle: saline with Tween-80
  T/C: 100 % of control
dose: 200.0 mg/kg/injection, schedule: Q01DX009 (ip), vehicle: saline with Tween-80
  T/C: 95 % of control

## Cc1ccc([N+](=O)[O-])c(OC(=O)Nc2ccccc2Cl)c1
dose: 100.0 mg/kg/injection, schedule: Q04DX003 (ip), vehicle: Klucel (hydroxypropylcellulose) (HPC)
  T/C: 100 % of control
dose: 200.0 mg/kg/injection, schedule: Q04DX003 (ip), vehicle: Klucel (hydroxypropylcellulose) (HPC)
  T/C: 93 % of control
dose: 400.0 mg/kg/injection, schedule: Q04DX003 (ip), vehicle: Klucel (hydroxypropylcellulose) (HPC)
  T/C: 93 % of control

## O=C(Nc1ccc(F)cc1)Nc1cccc2ccccc12
dose: 100.0 mg/kg/injection, schedule: Q01DX009 (ip), vehicle: Klucel (hydroxypropylcellulose) (HPC)
  T/C: 97 % of control
dose: 200.0 mg/kg/injection, schedule: Q01DX009 (ip), vehicle: Klucel (hydroxypropylcellulose) (HPC)
  T/C: 94 % of control

## CNCc1ccccc1C(O)c1ccc(Cl)cc1 (centres undefined)
[3]
  T/C: 102 % of control
[4]
  T/C: 100 % of control
dose: 25.0 mg/kg/injection, schedule: Q01DX009 (ip), vehicle: Klucel (hydroxypropylcellulose) (HPC)
  T/C: 97 % of control
dose: 50.0 mg/kg/injection, schedule: Q01DX009 (ip), vehicle: Klucel (hydroxypropylcellulose) (HPC)
  T/C: 102 % of control

## CC1(C)N=C(N)N=C(N)N1c1cccc(CCCCc2ccc(Cl)c(S(=O)(=O)F)c2)c1
dose: 3.13 mg/kg/injection, schedule: Q01DX009 (ip), vehicle: Klucel (hydroxypropylcellulose) (HPC)
  T/C: 94 % of control
[3]
  T/C: 100 % of control
[4]
  T/C: 94 % of control
